Reference: patent publication US9487515B2, “Compounds modulating c-fms and/or c-kit activity and uses therefor” (Plexxikon Inc., priority 2006, dated 2016)

Target: c-kit (Homo sapiens, UniProt P10721)
Test: c-kit assays of Examples 40 and 41 (AlphaScreen kinase assays at 10 and 100 μM ATP, 33P-ATP filter assay, M-07e SCF-stimulated proliferation and phosphorylation)

Chain of c-kit (P10721 with tags, fused parts or gaps): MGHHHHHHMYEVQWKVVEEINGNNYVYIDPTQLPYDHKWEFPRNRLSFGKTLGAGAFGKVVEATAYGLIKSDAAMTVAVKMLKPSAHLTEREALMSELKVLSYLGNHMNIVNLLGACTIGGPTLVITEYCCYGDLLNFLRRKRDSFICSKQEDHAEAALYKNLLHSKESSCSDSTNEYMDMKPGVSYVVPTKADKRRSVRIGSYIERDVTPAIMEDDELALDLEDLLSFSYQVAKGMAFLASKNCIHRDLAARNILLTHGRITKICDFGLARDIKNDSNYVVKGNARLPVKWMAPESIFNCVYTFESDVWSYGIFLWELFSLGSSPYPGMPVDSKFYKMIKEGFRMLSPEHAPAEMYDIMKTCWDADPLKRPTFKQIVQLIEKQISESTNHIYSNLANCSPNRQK

Row | IC50 | SMILES
1 | < 1 µM | Cc1cnc2[nH]cc(Cc3ccc(NCc4ccccc4Cl)nc3)c2c1 [P-0279, (2-Chloro-benzyl)-[5-(5-methyl-1H-pyrrolo[2,3-b]pyridin-3-ylmethyl)-pyridin-2-yl]-amine]
2 | < 1 µM | COc1ccccc1CNc1ccc(Cc2c[nH]c3ncccc23)cn1 [P-0336, (2-Methoxy-benzyl)-[5-(1H-pyrrolo[2,3-b]pyridin-3-ylmethyl)-pyridin-2-yl]-amine]
3 | < 1 µM | O=C(c1ccc(NCc2ccc(C(F)(F)F)cc2)nc1)c1c[nH]c2ncccc12 [P-0017, (1H-Pyrrolo[2,3-b]pyridin-3-yl)-[6-(4-trifluoromethyl-benzylamino)-pyridin-3-yl]-methanone]
4 | < 1 µM | O=C(Nc1ccc(Cc2c[nH]c3ncccc23)cn1)c1cccs1 [P-0103, Thiophene-2-carboxylic acid [5-(1H-pyrrolo[2,3-b]pyridin-3-ylmethyl)-pyridin-2-yl]-amide]
5 | < 1 µM | FC(F)(F)c1cccc(CNc2ncc(Cc3c[nH]c4ncc(Cl)cc34)cn2)c1 [P-0268, [5-(5-Chloro-1H-pyrrolo[2,3-b]pyridin-3-ylmethyl)-pyrimidin-2-yl]-(3-trifluoromethyl-benzyl)-amine]
6 | < 1 µM | Fc1ccc(CNc2ncc(Cc3c[nH]c4ncc(Cl)cc34)cn2)c(F)c1 [P-0265, [5-(5-Chloro-1H-pyrrolo[2,3-b]pyridin-3-ylmethyl)-pyrimidin-2-yl]-(2,4-difluoro-benzyl)-amine]
7 | < 1 µM | Fc1ccc(CNc2ccc(Cc3c[nH]c4ncccc34)cn2)c(Cl)c1 [P-0221, (2-Chloro-4-fluoro-benzyl)-[5-(1H-pyrrolo[2,3-b]pyridin-3-ylmethyl)-pyridin-2-yl]-amine]
8 | < 1 µM | Fc1c(CNc2ncc(Cc3c[nH]c4ncc(Cl)cc34)cn2)cccc1C(F)(F)F [P-0393, [5-(5-Chloro-1H-pyrrolo[2,3-b]pyridin-3-ylmethyl)-pyrimidin-2-yl]-(2-fluoro-3-trifluoromethyl-benzyl)-amine]
9 | < 1 µM | Cc1cc(CNc2ccc(Cc3c[nH]c4ncccc34)cn2)nn1C [P-0131, (1,5-Dimethyl-1H-pyrazol-3-ylmethyl)-[5-(1H-pyrrolo[2,3-b]pyridin-3-ylmethyl)-pyridin-2-yl]-amine]
10 | < 1 µM | c1cnc2[nH]cc(Cc3ccc(NCCN4CCCC4)nc3)c2c1 [P-0096, (2-Pyrrolidin-1-yl-ethyl)-[5-(1H-pyrrolo[2,3-b]pyridin-3-ylmethyl)-pyridin-2-yl]-amine]
11 | < 1 µM | N#Cc1cnc2[nH]cc(Cc3ccc(NCc4ccccc4Cl)nc3)c2c1 [P-0281, 3-[6-(2-Chloro-benzylamino)-pyridin-3-ylmethyl]-1H-pyrrolo[2,3-b]pyridine-5-carbonitrile]
12 | < 1 µM | Cc1cnc2[nH]cc(Cc3ccc(NCc4ccccc4F)nc3)c2c1 [P-0272, (2-Fluoro-benzyl)-[5-(5-methyl-1H-pyrrolo[2,3-b]pyridin-3-ylmethyl)-pyridin-2-yl]-amine]
13 | < 1 µM | Cc1ccccc1CNc1ccc(Cc2c[nH]c3ncccc23)cn1 [P-0217, (2-Methyl-benzyl)-[5-(1H-pyrrolo[2,3-b]pyridin-3-ylmethyl)-pyridin-2-yl]-amine]
14 | < 1 µM | COc1ccc(F)cc1CNc1ccc(Cc2c[nH]c3ncccc23)cn1 [P-0366, (5-Fluoro-2-methoxy-benzyl)-[5-(1H-pyrrolo[2,3-b]pyridin-3-ylmethyl)-pyridin-2-yl]-amine]
15 | < 1 µM | O=C(Nc1ccc(Cc2c[nH]c3ncccc23)cn1)c1ccc(F)cc1Cl [P-0101, 2-Chloro-4-fluoro-N-[5-(1H-pyrrolo[2,3-b]pyridin-3-ylmethyl)-pyridin-2-yl]-benzamide]
16 | < 1 µM | Cn1nc(NCc2ccc(F)cc2)cc1Cc1c[nH]c2ncc(Cl)cc12 [P-0170, [5-(5-Chloro-1H-pyrrolo[2,3-b]pyridin-3-ylmethyl)-1-methyl-1H-pyrazol-3-yl]-(4-fluoro-benzyl)-amine]
17 | < 1 µM | COc1ccc(CNc2ccc(Cc3c[nH]c4ncccc34)cn2)cn1 [P-0219, (6-Methoxy-pyridin-3-ylmethyl)-[5-(1H-pyrrolo[2,3-b]pyridin-3-ylmethyl)-pyridin-2-yl]-amine]
